tested on: TGF/SMAD Signaling Pathway SBE Reporter—HEK293 Cell Line; assay: Luciferase screen, TGF/SMAD SBE reporter HEK293 cells stimulated with TGFβ; assay type: cell-based; details: Homo sapiens, HEK293, 18 h, read-out: Luciferase IC50 nM
Procedure: For the data in Table 1, the Bight-Glo™ Luciferase Assay System from Promega was used with TGF/SMAD Signaling Pathway SBE Reporter—HEK293 Cell Line from BPSbioscience. On day 1 SBE reporter-HEK293 cells were seeded at a density of 25,000 cells per well into a white clear-bottom 96-well microplate in 100 μl of growth medium without geneticin. The plate was incubated at 37° C. in a CO2 incubator for 24 hrs. The wells were renewed with 60 μL assay medium and treated with test compounds by adding 5 μL of compounds in medium. The concentration of test compound in medium is adjusted so that 5 μL will provide the desired molarity of the solution. For example, if the desired test concentration is 30 µM, then 5 μL of […] compound is added. After 4 hours, TGFβ was added to 10 ng/mL. The plate was incubated at 37° C. in a CO2 incubator overnight (18 hours). One hour prior to assay all medium was replaced. The luciferase assay was run using ONE-Step™ Luciferase Assay System by adding 100 al of ONE-Step™ Luciferase reagent per well, rocking at room temperature for ~15 to 30 minutes and measuring luminescence using a luminometer. The signals were normalized to percentage inhibition, with non-TGF treated cells as 100% inhibition, and the data were processed by Graphpad Prism.

Compared with `CC1(C)Oc2ncc(-c3nc(-c4ccc(Cl)c(F)c4)no3)cc2CC1O` (stereo in doubt) [Example 35, (S)-6-(3-(4-chloro-3-fluorophenyl)-1,2,4-oxadiazol-5-yl)-2,2-dimethyl-3,4-dihydro-2H-pyrano[2,3-b]pyridin-3-ol], `CC1(C)Oc2ncc(-c3nc(-c4ccc(Cl)c(F)c4)no3)cc2C[C@@H]1O` [Example 34, (S)-6-(3-(4-chloro-3-fluorophenyl)-1,2,4-oxadiazol-5-yl)-2,2-dimethyl-3,4-dihydro-2H-pyrano[2,3-b]pyridin-3-ol] is 1.8-fold higher in IC50: 22 nM for the first, 39 nM for the second. The first is the more potent here.

Going from `CC1(C)Oc2ncc(-c3nc(-c4ccc(Br)cc4)no3)cc2CC1O` (stereo not shown) [Example 1, 6-(3-(4-bromophenyl)-1,2,4-oxadiazol-5-yl)-2,2-dimethyl-3,4-dihydro-2H-pyrano[2,3-b]pyridin-3-ol] to `CC1(C)Oc2ncc(-c3nc(-c4ccc(Br)cc4)no3)cc2C[C@H]1O` [Example 6, (R)-6-(3-(4-bromophenyl)-1,2,4-oxadiazol-5-yl)-2,2-dimethyl-3,4-dihydro-2H-pyrano[2,3-b]pyridin-3-ol], the IC50 falls from 43 nM to 27 nM (1.6-fold). The second is the more potent here.

`CC1(C)Oc2ncc(-c3nc(-c4ccc(Br)cc4)no3)cc2C(N)C1O` (stereo not shown) [Example 2, 4-amino-6-(3-(4-bromophenyl)-1,2,4-oxadiazol-5-yl)-2,2-dimethyl-3,4-dihydro-2H-pyrano[2,3-b]pyridin-3-ol] and `CC1(C)Oc2ncc(-c3nc(-c4ccc(Br)cc4)no3)cc2[C@H](O)[C@H]1O` [Example 8, (3R,4S)-6-(3-(4-bromophenyl)-1,2,4-oxadiazol-5-yl)-2,2-dimethyl-3,4-dihydro-2H-pyrano[2,3-b]pyridine-3,4-diol] are within 1.5-fold of each other in IC50: 8150 nM for the first, 11300 nM for the second.

Compared with `CC1(C)Oc2ncc(-c3nc(-c4ccc(Br)cc4)no3)cc2C[C@@H]1O` [Example 7, (S)-6-(3-(4-bromophenyl)-1,2,4-oxadiazol-5-yl)-2,2-dimethyl-3,4-dihydro-2H-pyrano[2,3-b]pyridin-3-ol], `Cc1ccc(-c2noc(-c3cnc4c(c3)C[C@H](O)C(C)(C)O4)n2)cc1` [Example 21, (S)-2,2-dimethyl-6-(3-p-tolyl-1,2,4-oxadiazol-5-yl)-3,4-dihydro-2H-pyrano[2,3-b]pyridin-3-ol] is 2.2-fold lower in IC50: 37 nM for the first, 17 nM for the second.

Going from `CC1(C)Oc2ncc(-c3nc(-c4ccc(Br)cc4)no3)cc2[C@@H](O)[C@@H]1O` [Example 9, (3S,4R)-6-(3-(4-bromophenyl)-1,2,4-oxadiazol-5-yl)-2,2-dimethyl-3,4-dihydro-2H-pyrano[2,3-b]pyridine-3,4-diol] to `CC1(C)Oc2ncc(-c3nc(-c4ccc(Cl)c(Cl)c4)no3)cc2C[C@@H]1O` [Example 22, (S)-6-(3-(3,4-dichlorophenyl)-1,2,4-oxadiazol-5-yl)-2,2-dimethyl-3,4-dihydro-2H-pyrano[2,3-b]pyridin-3-ol], the IC50 falls from 2420 nM to 43 nM (56-fold). The second is the more potent here.

Going from `CC1(C)Oc2ncc(-c3nc(-c4nc(Cl)cs4)no3)cc2C[C@@H]1O` [Example 28, (S)-6-(3-(4-chlorothiazol-2-yl)-1,2,4-oxadiazol-5-yl)-2,2-dimethyl-3,4-dihydro-2H-pyrano[2,3-b]pyridin-3-ol] to `Cc1cc(-c2noc(-c3cnc4c(c3)C[C@H](O)C(C)(C)O4)n2)ccc1Cl` [Example 36, (3S)-6-[3-(4-chloro-3-methyl-phenyl)-1,2,4-oxadiazol-5-yl]-2,2-dimethyl-3,4-dihydropyrano[2,3-b]pyridin-3-ol], the IC50 rises from 13 nM to 52 nM (4-fold).

`CCn1ccc(-c2noc(-c3cnc4c(c3)C[C@@H](O)C(C)(C)O4)n2)n1` [Example 29, (R)-6-(3-(1-ethyl-1H-pyrazol-3-yl)-1,2,4-oxadiazol-5-yl)-2,2-dimethyl-3,4-dihydro-2H-pyrano[2,3-b]pyridin-3-ol] and `CC1(C)Oc2ncc(-c3nc(-c4ncco4)no3)cc2C[C@@H]1O` [Example 32, (S)-2,2-dimethyl-6-(3-(oxazol-2-yl)-1,2,4-oxadiazol-5-yl)-3,4-dihydro-2H-pyrano[2,3-b]pyridin-3-ol] are within 1.5-fold of each other in IC50: 56 nM for the first, 65 nM for the second.

`CC1(C)Oc2ncc(-c3nc(-c4ncco4)no3)cc2C[C@H]1O` [Example 33, (3R)-2,2-dimethyl-6-(3-oxazol-2-yl-1,2,4-oxadiazol-5-yl)-3,4-dihydropyrano[2,3-b]pyridin-3-ol] was tested, and the IC50 was 76 nM.

same assay, conditions: Homo sapiens; SBE reporter-HEK293 cells, TGFβ 10 ng/mL, 18 hours; read-out: Luciferase IC50

First: CC1(C)C[C@@H](O)c2cc(-c3nc(-c4ccc(Br)cc4)no3)cnc2O1 (single isomer, unassigned) [Example 10]
Second: CC1(C)C[C@H](O)c2cc(-c3nc(-c4ccc(Br)cc4)no3)cnc2O1 (single isomer, unassigned) [Example 11]
The IC50 of the first is 4.1-fold higher: 233 nM for the first, 57 nM for the second.

Compared with `CC1(C)Oc2ncc(-c3nc(-c4ccc(Cl)cc4)no3)cc2CC1O` (stereo in doubt) [Example 12, (R)-6-(3-(4-chlorophenyl)-1,2,4-oxadiazol-5-yl)-2,2-dimethyl-3,4-dihydro-2H-pyrano[2,3-b]pyridin-3-ol], `CC1(C)Oc2ncc(-c3nc(-c4ccc(F)cc4)no3)cc2C[C@@H]1O` [Example 20, (S)-6-(3-(4-fluorophenyl)-1,2,4-oxadiazol-5-yl)-2,2-dimethyl-3,4-dihydro-2H-pyrano[2,3-b]pyridin-3-ol] is 2.5-fold higher in IC50: 89 nM for the first, 223 nM for the second.

Going from `CC1(C)Oc2ncc(-c3nc(-c4nccs4)no3)cc2CC1O` (stereo in doubt) [Example 14, (R)-2,2-dimethyl-6-(3-(thiazol-2-yl)-1,2,4-oxadiazol-5-yl)-3,4-dihydro-2H-pyrano[2,3-b]pyridin-3-ol] to `CC1(C)Oc2ncc(-c3nc(-c4ncc(Cl)s4)no3)cc2C[C@@H]1O` [Example 23, (S)-6-(3-(5-chlorothiazol-2-yl)-1,2,4-oxadiazol-5-yl)-2,2-dimethyl-3,4-dihydro-2H-pyrano[2,3-b]pyridin-3-ol], the IC50 falls from 1370 nM to 242 nM (5.7-fold). The second is the more potent here.

`CC1(C)Oc2ncc(-c3nc(-c4nccs4)no3)cc2CC1O` (stereo in doubt) [Example 16, (S)-2,2-dimethyl-6-(3-(thiazol-2-yl)-1,2,4-oxadiazol-5-yl)-3,4-dihydro-2H-pyrano[2,3-b]pyridin-3-ol] and `Cc1cnc(-c2noc(-c3cnc4c(c3)C[C@H](O)C(C)(C)O4)n2)s1` [Example 24, (S)-2,2-dimethyl-6-(3-(5-methylthiazol-2-yl)-1,2,4-oxadiazol-5-yl)-3,4-dihydro-2H-pyrano[2,3-b]pyridin-3-ol] are within 1.5-fold of each other in IC50: 1110 nM for the first, 822 nM for the second.

Compared with `C[C@H]1CCc2cc(-c3nc(-c4ccc(Br)cc4)no3)cnc2O1` [Example 3], `C[C@@H]1CCc2cc(-c3nc(-c4ccc(Br)cc4)no3)cnc2O1` [Example 4, ethyl (R)-6-(3-(4-bromophenyl)-1,2,4-oxadiazol-5-yl)-2-methyl-3,4-dihydro-2H-pyrano[2,3-b]pyridine] is 1.9-fold lower in IC50: 234 nM for the first, 126 nM for the second.

First: CC1(C)CC(O)c2cc(-c3nc(-c4ccc(Br)cc4)no3)cnc2O1 (stereo not shown) [Example 5, 6-(3-(4-bromophenyl)-1,2,4-oxadiazol-5-yl)-2,2-dimethyl-3,4-dihydro-2H-pyrano[2,3-b]pyridin-4-ol]
Second: CO[C@H]1Cc2cc(-c3nc(-c4ccc(Cl)cc4)no3)cnc2OC1(C)C [Example 19, (S)-6-(3-(4-chlorophenyl)-1,2,4-oxadiazol-5-yl)-3-methoxy-2,2-dimethyl-3,4-dihydro-2H-pyrano[2,3-b]pyridine]
The IC50 of the first is 4-fold lower: 86 nM for the first, 340 nM for the second. The first is the more potent here.

First: Cn1ccc(-c2noc(-c3cnc4c(c3)C[C@@H](O)C(C)(C)O4)n2)n1 [Example 17, (R)-2,2-dimethyl-6-(3-(1-methyl-1H-pyrazol-3-yl)-1,2,4-oxadiazol-5-yl)-3,4-dihydro-2H-pyrano[2,3-b]pyridin-3-ol]
Second: Cn1ccc(-c2noc(-c3cnc4c(c3)C[C@H](O)C(C)(C)O4)n2)n1 [Example 18, (S)-2,2-dimethyl-6-(3-(1-methyl-1H-pyrazol-3-yl)-1,2,4-oxadiazol-5-yl)-3,4-dihydro-2H-pyrano[2,3-b]pyridin-3-ol]
The IC50 of the first is 1.6-fold lower: 18 nM for the first, 28 nM for the second.

Compared with `CC1(C)Oc2ncc(-c3nc(-c4ncc(Cl)s4)no3)cc2C[C@H]1O` [Example 25, (R)-6-(3-(5-chlorothiazol-2-yl)-1,2,4-oxadiazol-5-yl)-2,2-dimethyl-3,4-dihydro-2H-pyrano[2,3-b]pyridin-3-ol], `Cc1cnc(-c2noc(-c3cnc4c(c3)C[C@@H](O)C(C)(C)O4)n2)s1` [Example 26, (R)-2,2-dimethyl-6-(3-(5-methylthiazol-2-yl)-1,2,4-oxadiazol-5-yl)-3,4-dihydro-2H-pyrano[2,3-b]pyridin-3-ol] is 3.4-fold higher in IC50: 206 nM for the first, 708 nM for the second.

First: CC1(C)Oc2ncc(-c3nc(-c4nc(Cl)cs4)no3)cc2C[C@H]1O [Example 27, (R)-6-(3-(4-chlorothiazol-2-yl)-1,2,4-oxadiazol-5-yl)-2,2-dimethyl-3,4-dihydro-2H-pyrano[2,3-b]pyridin-3-ol]
Second: CC1(C)Oc2ncc(-c3nc(-c4cccc(Cl)c4)no3)cc2C[C@@H]1O [Example 30, (S)-6-(3-(3-chlorophenyl)-1,2,4-oxadiazol-5-yl)-2,2-dimethyl-3,4-dihydro-2H-pyrano[2,3-b]pyridin-3-ol]
The IC50 of the first is 5.2-fold higher: 705 nM for the first, 136 nM for the second. The second is the more potent here.

`CC1(C)Oc2ncc(-c3nc(-c4cccc(Cl)c4)no3)cc2C[C@H]1O` [Example 31, (R)-6-(3-(3-chlorophenyl)-1,2,4-oxadiazol-5-yl)-2,2-dimethyl-3,4-dihydro-2H-pyrano[2,3-b]pyridin-3-ol] was tested, and the IC50 was 152 nM.
